# Measured values reported in US20250230193A1, “CYCLIC COMPOUND HAVING SELECTIVE KRAS INHIBITORY EFFECT ON HRAS AND NRAS” (CHUGAI SEIYAKU KABUSHIKI KAISHA, priority 2022, published 2025).
# *1 amine or outer side, *2 acyl side, *3 side chain or, on linkers, in order; H or OH if unused. Where a SMILES comes first, the peptide text is derived from it. Bridges are numbered along the chain shown (N, C = ends). [ ]: non-standard residue; d: D form. The star is where a group is joined. hPhe(3-Cl-4-CF3) = N[C@@H](CCc1ccc(C(F)(F)F)c(Cl)c1)C(=O)O; NPrPhe(4-CF3) = CCCN[C@@H](Cc1ccc(C(F)(F)F)cc1)C(=O)O; NPrAsp = CCCN([C@@H](CC(=O)[*:3])C(=O)[*:2])[*:1]; NEtAsp = CCN([C@@H](CC(=O)[*:3])C(=O)[*:2])[*:1]; X30 = CCN([C@H](C(=O)[*:2])C1CCCC1)[*:1]; NMeGly(cPent) = CN[C@H](C(=O)O)C1CCCC1; NMeD = CN[C@@H](CC(=O)O)C(=O)O; NMeL = CN[C@@H](CC(C)C)C(=O)O; NMeNva = CCC[C@H](NC)C(=O)O; Morpholide = C1CN(*)CCO1; Ac4c = NC1(C(=O)O)CCC1; NPrGly = CCCNCC(=O)O; NEtG = CCNCC(=O)O; Sar = CNCC(=O)O
# Tests used:
# [1] = target: GDP-bound NRAS wild-type protein (Homo sapiens, UniProt P01111); assay: Binding to NRAS by surface plasmon resonance (SPR), Single Cycle Kinetics; conditions: KD ratio, GDP-bound NRAS wild-type vs GDP-bound KRAS wild-type, SPR
# Chain of GDP-bound NRAS wild-type protein (P01111 whole entry): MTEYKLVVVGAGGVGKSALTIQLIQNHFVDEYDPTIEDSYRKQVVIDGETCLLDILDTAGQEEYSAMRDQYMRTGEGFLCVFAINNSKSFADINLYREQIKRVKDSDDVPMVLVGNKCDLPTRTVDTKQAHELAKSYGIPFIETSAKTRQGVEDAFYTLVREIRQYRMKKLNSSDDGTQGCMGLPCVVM
# [2] = target: GDP-bound HRAS wild-type protein (Homo sapiens, UniProt P01112); assay: Binding to HRAS by surface plasmon resonance (SPR), Single Cycle Kinetics; conditions: KD ratio, GDP-bound HRAS wild-type vs GDP-bound KRAS wild-type, SPR
# Chain of GDP-bound HRAS wild-type protein (P01112 whole entry): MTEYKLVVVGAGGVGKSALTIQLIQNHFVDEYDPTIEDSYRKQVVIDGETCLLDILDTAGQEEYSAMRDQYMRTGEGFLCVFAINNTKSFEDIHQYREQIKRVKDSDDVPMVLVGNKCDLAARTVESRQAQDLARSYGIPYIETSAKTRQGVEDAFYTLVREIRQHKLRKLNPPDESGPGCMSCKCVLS
Structure (SMILES),NRAS/KRAS (ratio of KD value for NRAS to KD value for KRAS) [1],HRAS/KRAS (ratio of KD value for HRAS to KD value for KRAS) [2]
CCCN1C(=O)CN(CC)C(=O)CN(C)C(=O)[C@H]([C@@H](C)CC)NC(=O)[C@H](CC(C)C)N(C)C(=O)C[C@@H](C(=O)N2CCOCC2)N(C)C(=O)[C@H](C2CCCC2)N(C)C(=O)C2(CCC2)NC(=O)[C@@H]2CCCN2C(=O)[C@H](CCc2ccc(C(F)(F)F)c(Cl)c2)NC(=O)CN(C)C(=O)[C@@H]1Cc1ccc(C(F)(F)F)cc1 [PP1948] ([NMeL]I[Sar][NEtG][NPrPhe(4-CF3)][Sar][hPhe(3-Cl-4-CF3)]P[Ac4c][NMeGly(cPent)][NMeD]-Morpholide; lactam N-11),C (A compound having a KD ratio of 0.1 or more and less than 3 is denoted as C),C (A compound having a KD ratio of 0.1 or more and less than 3 is denoted as C)
CCC[C@H]1C(=O)N[C@@H]([C@@H](C)CC)C(=O)N(C)CC(=O)N(CCC)CC(=O)N(CCC)[C@@H](Cc2ccc(C(F)(F)F)cc2)C(=O)N(C)CC(=O)N[C@@H](CCc2ccc(C(F)(F)F)c(Cl)c2)C(=O)N2CCC[C@H]2C(=O)NC2(CCC2)C(=O)N(C)[C@@H](C2CCCC2)C(=O)N(C)[C@H](C(=O)N2CCOCC2)CC(=O)N1C [PP1949] ([NMeNva]I[Sar][NPrGly][NPrPhe(4-CF3)][Sar][hPhe(3-Cl-4-CF3)]P[Ac4c][NMeGly(cPent)][NMeD]-Morpholide; lactam N-11),C (A compound having a KD ratio of 0.1 or more and less than 3 is denoted as C),C (A compound having a KD ratio of 0.1 or more and less than 3 is denoted as C)
CCCN1C(=O)CN(C)C(=O)CN(C)C(=O)[C@H]([C@@H](C)CC)NC(=O)[C@H](CC(C)C)N(C)C(=O)C[C@@H](C(=O)N2CCOCC2)N(C)C(=O)[C@H](C2CCCC2)N(C)C(=O)C2(CCC2)NC(=O)[C@@H]2CCCN2C(=O)[C@H](CCc2ccc(C(F)(F)F)c(Cl)c2)NC(=O)CN(CC)C(=O)[C@@H]1Cc1ccc(C(F)(F)F)cc1 [PP1950] ([NMeL]I[Sar][Sar][NPrPhe(4-CF3)][NEtG][hPhe(3-Cl-4-CF3)]P[Ac4c][NMeGly(cPent)][NMeD]-Morpholide; lactam N-11),B (a compound having 3 or more and less than 10 is denoted as B),C (A compound having a KD ratio of 0.1 or more and less than 3 is denoted as C)
CCCN1C(=O)CN(C)C(=O)CN(C)C(=O)[C@H]([C@@H](C)CC)NC(=O)[C@H](CC(C)C)N(C)C(=O)C[C@@H](C(=O)N2CCOCC2)N(C)C(=O)[C@H](C2CCCC2)N(CC)C(=O)C2(CCC2)NC(=O)[C@@H]2CCCN2C(=O)[C@H](CCc2ccc(C(F)(F)F)c(Cl)c2)NC(=O)CN(C)C(=O)[C@@H]1Cc1ccc(C(F)(F)F)cc1 [PP1952] ([NMeL]I[Sar][Sar][NPrPhe(4-CF3)][Sar][hPhe(3-Cl-4-CF3)]P[Ac4c][X30][NMeD]-Morpholide; lactam N-11),B (a compound having 3 or more and less than 10 is denoted as B),B (a compound having 3 or more and less than 10 is denoted as B)
CCCN1C(=O)CN(C)C(=O)CN(C)C(=O)[C@H]([C@@H](C)CC)NC(=O)[C@H](CC(C)C)N(C)C(=O)C[C@@H](C(=O)N2CCOCC2)N(CC)C(=O)[C@H](C2CCCC2)N(C)C(=O)C2(CCC2)NC(=O)[C@@H]2CCCN2C(=O)[C@H](CCc2ccc(C(F)(F)F)c(Cl)c2)NC(=O)CN(C)C(=O)[C@@H]1Cc1ccc(C(F)(F)F)cc1 [PP1953] ([NMeL]I[Sar][Sar][NPrPhe(4-CF3)][Sar][hPhe(3-Cl-4-CF3)]P[Ac4c][NMeGly(cPent)][NEtAsp]-Morpholide; lactam N-11),B (a compound having 3 or more and less than 10 is denoted as B),B (a compound having 3 or more and less than 10 is denoted as B)
CCC[C@H]1C(=O)N[C@@H]([C@@H](C)CC)C(=O)N(C)CC(=O)N(C)CC(=O)N(CCC)[C@@H](Cc2ccc(C(F)(F)F)cc2)C(=O)N(C)CC(=O)N[C@@H](CCc2ccc(C(F)(F)F)c(Cl)c2)C(=O)N2CCC[C@H]2C(=O)NC2(CCC2)C(=O)N(C)[C@@H](C2CCCC2)C(=O)N(CCC)[C@H](C(=O)N2CCOCC2)CC(=O)N1C [PP1954] ([NMeNva]I[Sar][Sar][NPrPhe(4-CF3)][Sar][hPhe(3-Cl-4-CF3)]P[Ac4c][NMeGly(cPent)][NPrAsp]-Morpholide; lactam N-11),B (a compound having 3 or more and less than 10 is denoted as B),B (a compound having 3 or more and less than 10 is denoted as B)
